Counter-ions that a name gives are not always drawn.

The first test has as its target T1, BRD4 BD2 (Homo sapiens, UniProt O60885, Y97A).
T1 construct: BRD4 (1-477) (Y97A) and (Y390A); made in house; host or cells: E. coli (pET15b vector)
The test is described as follows: BRD4 BD2 mutant TR-FRET competition assay. The following applies: average of N recorded values, read-out: BRD4 BD2 IC50 (average value) (converted). In kind it is binding. (In general: Time-resolved FRET reads energy transfer from a long-lived donor to a nearby acceptor.)
For the compound `CNC(=O)c1cc(C(=O)NCCCC2CCNCC2)cn(Cc2ccccc2)c1=O` [Example 6a, 1-Benzyl-N^3-methyl-2-oxo-N^5-(3-(piperidin-4-yl)propyl)-1,2-dihydropyridine-3,5-dicarboxamide], the IC50 is 31.6 nM. Still for that read-out and setting: as for `CNC(=O)c1cc(C(=O)NCCCC2CCN(C)CC2)cn(Cc2ccccc2)c1=O` [Example 7, 1-Benzyl-N^3-methyl-N^5-(3-(1-methylpiperidin-4-yl)propyl)-2-oxo-1,2-dihydropyridine-3,5-dicarboxamide], the figure is 31.6 nM. Still for that read-out and setting: with `CNC(=O)c1cc(C(=O)NCCCC2CCNCC2)cn(Cc2cccc(OCCO)c2)c1=O` [Example 23, 1-(3-(2-Hydroxyethoxy)benzyl)-N^3-methyl-2-oxo-N^5-(3-(piperidin-4-yl)propyl)-1,2-dihydropyridine-3,5-dicarboxamide] the figure was 50.1 nM; with `CNC(=O)c1cc(C(=O)NCCCC2CCN(CCO)CC2)cn(Cc2ccccc2)c1=O` [Example 25], 39.8 nM. `CNC(=O)c1cc(C(=O)NCCCC2CCN(CCF)CC2)cn(Cc2ccccc2)c1=O` [Example 29, 1-Benzyl-N^5-(3-(1-(2-fluoroethyl)piperidin-4-yl)propyl)-N^3-methyl-2-oxo-1,2-dihydropyridine-3,5-dicarboxamide. formic acid salt]: the IC50 is 25.1 nM. On the same count and under the same terms, as for `CNC(=O)c1cc(C(=O)NCCCC2CCNCC2)cn(Cc2cccc3[nH]ccc23)c1=O` [Example 30, 1-((1H-Indol-4-yl)methyl)-N^3-methyl-2-oxo-N^5-(3-(piperidin-4-yl)propyl)-1,2-dihydropyridine-3,5-dicarboxamide], the figure is 10 nM.

The same test, now with this note: read-out: pIC50 in the BRD4 BD2 assay (converted).
As for `CNC(=O)c1cc(C(=O)NCCC2CCNCC2)cn(Cc2ccccc2)c1=O` [Example 2, 1-Benzyl-N^3-methyl-2-oxo-N^5-(2-(piperidin-4-yl)ethyl)-1,2-dihydropyridine-3,5-dicarboxamide], the IC50 was at most 100 nM. Same read-out and setting: with `CNC(=O)c1cc(C(=O)NCCC2CCN(C)CC2)cn(Cc2ccccc2)c1=O` [Example 3, 1-Benzyl-N^3-methyl-N^5-(2-(1-methylpiperidin-4-yl)ethyl)-2-oxo-1,2-dihydropyridine-3,5-dicarboxamide] the figure was at most 100 nM; with `CNC(=O)c1cc(C(=O)NC2CN(C(=O)OC(C)(C)C)C2)cn(Cc2ccccc2)c1=O` [Example 4, tert-Butyl 3-(1-benzyl-5-(methylcarbamoyl)-6-oxo-1,6-dihydropyridine-3-carboxamido)azetidine-1-carboxylate], 100 to 1000 nM. The same measure, in the same setting: as for `CNC(=O)c1cc(C(=O)NCCCC2CCN(C(=O)OC(C)(C)C)CC2)cn(Cc2ccccc2)c1=O` [Example 5], the figure is 100 to 1000 nM; as for `CNC(=O)c1cc(C(=O)NCCCC2CCNCC2)cn(Cc2ccccc2)c1=O` [Example 6a, 1-Benzyl-N^3-methyl-2-oxo-N^5-(3-(piperidin-4-yl)propyl)-1,2-dihydropyridine-3,5-dicarboxamide], at most 100 nM. Same read-out and setting: with `CNC(=O)c1cc(C(=O)NCCCC2CCN(C)CC2)cn(Cc2ccccc2)c1=O` [Example 7, 1-Benzyl-N^3-methyl-N^5-(3-(1-methylpiperidin-4-yl)propyl)-2-oxo-1,2-dihydropyridine-3,5-dicarboxamide] the figure was at most 100 nM; with `CNC(=O)c1cc(C(=O)NCCCC2CCN(C(C)=O)CC2)cn(Cc2ccccc2)c1=O` [Example 8, N^5-(3-(1-Acetylpiperidin-4-yl)propyl)-1-benzyl-N^3-methyl-2-oxo-1,2-dihydropyridine-3,5-dicarboxamide], 100 to 1000 nM; with `CNC(=O)c1cc(C(=O)NCCC2CCOC2)cn(Cc2ccccc2)c1=O` (centres unmarked) [Example 9, 1-Benzyl-N^3-methyl-2-oxo-N^5-(2-(tetrahydrofuran-3-yl)ethyl)-1,2-dihydropyridine-3,5-dicarboxamide], 100 to 1000 nM.

As for `CNC(=O)c1cc(C(=O)NCCCC2CCN(CC(F)(F)F)CC2)cn(Cc2ccccc2)c1=O` [Example 10], the IC50 was at most 100 nM. Still for that read-out and setting: with `CCN1CCC(CCCNC(=O)c2cc(C(=O)NC)c(=O)n(Cc3ccccc3)c2)CC1` [Example 11, 1-Benzyl-N^5-(3-(1-ethylpiperidin-4-yl)propyl)-N^3-methyl-2-oxo-1,2-dihydropyridine-3,5-dicarboxamide] the figure was at most 100 nM; with `CNC(=O)c1cc(C(=O)NCCCN2CCNCC2)cn(Cc2ccccc2)c1=O` [Example 12, 1-Benzyl-N^3-methyl-2-oxo-N^5-(3-(piperazin-1-yl)propyl)-1,2-dihydropyridine-3,5-dicarboxamide, hydrochloride], at most 100 nM; with `CNC(=O)c1cc(C(=O)NCCC2CCS(=O)(=O)CC2)cn(Cc2ccccc2)c1=O` [Example 13, 1-Benzyl-N^5-(2-(1,1-dioxidotetrahydro-2H-thiopyran-4-yl)ethyl)-N^3-methyl-2-oxo-1,2-dihydropyridine-3,5-dicarboxamide], 100 to 1000 nM.

Consider `CNC(=O)c1cc(C(=O)NCCCC2CCNCC2)cn(Cc2ccccc2F)c1=O` [Example 14, 1-(2-Fluorobenzyl)-N^3-methyl-2-oxo-N^5-(3-(piperidin-4-yl)propyl)-1,2-dihydropyridine-3,5-dicarboxamide], for which the IC50 is at most 100 nM. On the same count and under the same terms, as for `CNC(=O)c1cc(C(=O)NCCCC2CCNCC2)cn(Cc2cccc(C)c2)c1=O` [Example 15, N^3-Methyl-1-(3-methylbenzyl)-2-oxo-N^5-(3-(piperidin-4-yl)propyl)-1,2-dihydropyridine-3,5-dicarboxamide], the figure is at most 100 nM; as for `CNC(=O)c1cc(C(=O)NCCC2CCNCC2)cn(Cc2cccc(C)c2)c1=O` [Example 16, N^3-Methyl-1-(3-methylbenzyl)-2-oxo-N^5-(2-(piperidin-4-yl)ethyl)-1,2-dihydropyridine-3,5-dicarboxamide], at most 100 nM.

For `CNC(=O)c1cc(C(=O)NCCCC2CCNCC2)cn([C@H](C)c2ccccc2)c1=O` [Example 17, (R)-N^3-Methyl-2-oxo-1-(1-phenylethyl)-N^5-(3-(piperidin-4-yl)propyl)-1,2-dihydropyridine-3,5-dicarboxamide], the IC50 is at most 100 nM.

As to `CNC(=O)c1cc(C(=O)NCCC2CCNCC2)cn([C@H](C)c2ccccc2)c1=O` [Example 18, (R)-N^3-Methyl-2-oxo-1-(1-phenylethyl)-N^5-(2-(piperidin-4-yl)ethyl)-1,2-dihydropyridine-3,5-dicarboxamide], the IC50 was at most 100 nM. The same measure, in the same setting: with `CNC(=O)c1cc(C(=O)NCCCC2CCNCC2)cn(Cc2cccc(OC)c2)c1=O` [Example 19, 1-(3-Methoxybenzyl)-N^3-methyl-2-oxo-N^5-(3-(piperidin-4-yl)propyl)-1,2-dihydropyridine-3,5-dicarboxamide] the figure was at most 100 nM; with `CNC(=O)c1cc(C(=O)NCCC2CCNCC2)cn(Cc2cccc(OC)c2)c1=O` [Example 20, 1-(3-Methoxybenzyl)-N^3-methyl-2-oxo-N^5-(2-(piperidin-4-yl)ethyl)-1,2-dihydropyridine-3,5-dicarboxamide], 100 to 1000 nM; with `CNC(=O)c1cc(C(=O)NCCCC2CCNCC2)cn(Cc2ccc(F)c(C)c2)c1=O` [Example 21, 1-(4-Fluoro-3-methylbenzyl)-N^3-methyl-2-oxo-N^5-(3-(piperidin-4-yl)propyl)-1,2-dihydropyridine-3,5-dicarboxamide], at most 100 nM.

Turning to `CNC(=O)c1cc(C(=O)NCCCC2CCNCC2)cn(Cc2ccc(F)cc2)c1=O` [Example 22, 1-(4-Fluorobenzyl)-N^3-methyl-2-oxo-N-(3-(piperidin-4-1)propyl)-1,2-dihydropyridine-3,5-dicarboxamide], the IC50 was at most 100 nM. Still for that read-out and setting: with `CNC(=O)c1cc(C(=O)NCCCC2CCNCC2)cn(Cc2cccc(OCCO)c2)c1=O` [Example 23, 1-(3-(2-Hydroxyethoxy)benzyl)-N^3-methyl-2-oxo-N^5-(3-(piperidin-4-yl)propyl)-1,2-dihydropyridine-3,5-dicarboxamide] the figure was at most 100 nM; with `CNC(=O)c1cc(C(=O)NCCC2CCNCC2)cn(Cc2cccc(OCCO)c2)c1=O` [Example 24, 1-(3-(2-Hydroxyethoxy)benzyl)-N^3-methyl-2-oxo-N^5-(2-(piperidin-4-yl)ethyl)-1,2-dihydropyridine-3,5-dicarboxamide], at most 100 nM; with `CNC(=O)c1cc(C(=O)NCCCC2CCN(CCO)CC2)cn(Cc2ccccc2)c1=O` [Example 25], at most 100 nM. Same read-out and setting: with `CNC(=O)c1cc(C(=O)NCCCC2CCNCC2)cn(Cc2cccc(C)c2F)c1=O` [Example 26, 1-(2-Fluoro-3-methylbenzyl)-N^3-methyl-2-oxo-N^5-(3-(piperidin-4-yl)propyl)-1,2-dihydropyridine-3,5-dicarboxamide] the figure was at most 100 nM; with `CNC(=O)c1cc(C(=O)NCCC2CCNCC2)cn(Cc2cccc(C)c2F)c1=O` [Example 27, 1-(2-Fluoro-3-methylbenzyl)-N^3-methyl-2-oxo-N^5-(2-(piperidin-4-yl)ethyl)-1,2-dihydropyridine-3,5-dicarboxamide], 100 to 1000 nM; with `CNC(=O)c1cc(C(=O)NCCCC2CCN(CC(F)F)CC2)cn(Cc2ccccc2)c1=O` [Example 28], at most 100 nM. For `CNC(=O)c1cc(C(=O)NCCCC2CCN(CCF)CC2)cn(Cc2ccccc2)c1=O` [Example 29, 1-Benzyl-N^5-(3-(1-(2-fluoroethyl)piperidin-4-yl)propyl)-N^3-methyl-2-oxo-1,2-dihydropyridine-3,5-dicarboxamide. formic acid salt], the IC50 is at most 100 nM. Regarding `CNC(=O)c1cc(C(=O)NCCCC2CCNCC2)cn(Cc2cccc3[nH]ccc23)c1=O` [Example 30, 1-((1H-Indol-4-yl)methyl)-N^3-methyl-2-oxo-N^5-(3-(piperidin-4-yl)propyl)-1,2-dihydropyridine-3,5-dicarboxamide], the IC50 is at most 100 nM. On the same count and under the same terms, as for `CNC(=O)c1cc(C(=O)NCCC2CCCOC2)cn(Cc2ccccc2)c1=O` (centres unmarked) [Example 31, 1-Benzyl-N^3-methyl-2-oxo-N^5-(2-(tetrahydro-2H-pyran-3-yl)ethyl)-1,2-dihydropyridine-3,5-dicarboxamide], the figure is 100 to 1000 nM; as for `CNC(=O)c1cc(C(=O)NCCC2CCN(C(=O)OC(C)(C)C)CC2)cn(Cc2ccccc2)c1=O` [Example 32, tert-Butyl 4-(2-(1-benzyl-5-(methylcarbamoyl)-6-oxo-1,6-dihydropyridine-3-carboxamido)ethyl)piperidine-1-carboxylate], 100 to 1000 nM. For `CNC(=O)c1cc(C(=O)NC2CNC2)cn(Cc2ccccc2)c1=O` [Example 33, N^5-(Azetidin-3-l)-1-benzyl-N^3-methyl-2-oxo-1,2-dihydropyridine-3,5-dicarboxamide], the IC50 is 100 to 1000 nM.

Take `CNC(=O)c1cc(C(=O)NC2CN(C)C2)cn(Cc2ccccc2)c1=O` [Example 34, 1-Benzyl-N^3-methyl-N^5-(1-methylazetidin-3-yl)-2-oxo-1,2-dihdyropyridine-3,5-dicarboxamide]: the IC50 is 1000 to 100000 nM.

As to `CNC(=O)c1cc(C(=O)NC2CC3OCCCC23)cn(Cc2ccccc2)c1=O` (centres unmarked) [Example 35, 1-Benzyl-N^5-(2-oxabicyclo[4.2.0]octan-7-yl)-N^3-methyl-2-oxo-1,2-dihydropyridine-3,5-dicarboxamide], the IC50 was 1000 to 100000 nM.

Regarding `CNC(=O)c1cc(C(=O)NCCC2CCN(C)C2)cn(Cc2ccccc2)c1=O` (centres unmarked) [Example 36, 1-Benzyl-N^3-methyl-N^5-(2-(1-methylpyrrolidin-3-yl)ethyl)-2-oxo-1,2-dihydropyridine-3,5-dicarboxamide], the IC50 was 100 to 1000 nM.

The values above are taken from patent publication US10370356B2, “Pyridinone dicarboxamide for use as bromodomain inhibitors” (GlaxoSmithKline Intellectual Property (No. 2) Limited, priority 2015, dated 2019).
